Measurements reported in patent US6518260B1, “(α-aminophosphino) peptide derivatives, method for making same and therapeutic applications thereof” (Institut National de la Sante et de la Recherche Medicale …, priority 1996, dated 2003).

Point of comparison: `NC(Cc1ccccc1)P(=O)(O)CC(Cc1ccccc1)C(=O)N[C@@H](Cc1ccccc1)C(=O)OCc1ccccc1.O=C(O)C(F)(F)F` (stereo partly shown), melting point 210 °C. Against it:
- NC(Cc1ccccc1)P(=O)(CC(Cc1ccccc1)C(=O)N[C@@H](Cc1ccccc1)C(=O)OCc1ccccc1)OCc1ccccc1.O=CO (stereo partly shown) — lower, 192 °C
- CC(N)P(=O)(O)CC(Cc1ccc(-c2ccccc2)cc1)C(=O)N[C@@H](C)C(=O)OCc1ccccc1.O=C(O)C(F)(F)F (stereo partly shown) — lower, 205 °C
- Br.NC(Cc1ccccc1)P(=O)(O)CC(Cc1ccccc1)C(=O)N[C@H](CC(=O)O)Cc1ccccc1 (stereo partly shown) — higher, 240 °C
